Test results taken from patent publication US11497212B2, “Substituted thiophenyl uracils, salts thereof and the use thereof as herbicidal agents” (Syngenta Crop Protection AG, priority 2017, dated 2022).

Key:
Assay type in all cases: in vivo
[1] = test system: Pharbitis purpurea; test: Herbicidal action post-emergence (greenhouse pot trial); details: application rate 20 g/ha
Outline: (§1)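 Sowing in sandy loam, then 2–3 weeks of controlled greenhouse growth. Next, one-leaf-stage plants received a foliar spray of the WP- or EC-formulated compound with 0.5% additive (600 L/ha water, application rate of 80 g/ha or below). Finally, after about 3 weeks under optimal conditions, effect was judged by eye against controls.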

[2] = test system: Veronica persica; test: as above; details: application rate 20 g/ha
Outline: as §1

[3] = test system: Digitaria sanguinalis; test: as above; details: application rate 20 g/ha
Outline: as §1

[4] = test system: Alopecurus myosuroides; test: as above; details: application rate 20 g/ha, scored visually after about 3 weeks vs untreated controls
Outline: as §1

[5] = test system: Echinochloa crus-galli; test: as above; details: application rate 20 g/ha, scored visually after about 3 weeks vs untreated controls
Outline: as §1

[6] = test system: Matricaria inodora; test: as above; details: application rate 20 g/ha, scored visually after about 3 weeks vs untreated controls
Outline: as §1

[7] = test system: Setaria viridis; test: as above; details: application rate 20 g/ha, scored visually after about 3 weeks vs untreated controls
Outline: as §1

[8] = test system: Stellaria media; test: as above; details: application rate 20 g/ha, scored visually after about 3 weeks vs untreated controls
Outline: as §1

[9] = test system: Viola tricolor; test: as above; details: application rate 20 g/ha
Outline: as §1

[10] = test system: Amaranthus retroflexus; test: as above; details: application rate 20 g/ha, scored visually after about 3 weeks vs untreated controls
Outline: as §1

[11] = test system: Polygonum convolvulus; test: as above; details: application rate 20 g/ha, scored visually after about 3 weeks vs untreated controls
Outline: as §1

[12] = test system: Abutilon theophrasti; test: as above; details: application rate 20 g/ha, scored visually after about 3 weeks vs untreated controls
Outline: as §1

[13] = test system: Triticum aestivum; test: Crop compatibility post-emergence (greenhouse pot trial)
Outline: (§2)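 Visual % rating about 3 weeks post-treatment against untreated plants (100% dead, 0% unaffected). Post-emergence spray of aqueous WP/EC preparations with 0.5% additive at 600 L/ha water, applied at one-leaf stage to greenhouse pot-grown crops in sandy loam.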

[14] = test system: Pharbitis purpurea; test: Herbicidal action pre-emergence (greenhouse pot trial); details: application rate 320 g/ha
Description: (§3) Seeds of mono- and dicotyledonous weeds and crop plants were laid out in plastic or organic plant pots and covered with soil. The compounds of the invention formulated in the form of wettable powders (WP) or emulsion concentrates (EC) were then applied to the surface of the covering soil as an aqueous suspension or emulsion with addition of 0.5% additive at a water application rate equivalent to 600 L/ha. After the treatment, the pots were placed in a greenhouse and kept under good growth conditions for the test plants. After about 3 weeks, the efficacy of the preparations was scored visually as a percentage by comparison with untreated controls. For example, 100% efficacy=plants have died, 0% efficacy=like control plants. Tables B1 to B16 below show the efficacies of selected compounds of the general formula (I) according to tables I.1 to I.60 on various harmful plants and an application rate corresponding to 320 g/ha or lower that were obtained by the aforementioned trial method.

[15] = test system: Echinochloa crus-galli; test: as above; details: application rate 320 g/ha, scored after about 3 weeks
Description: as §3

[16] = test system: Matricaria inodora; test: as above; details: scored after about 3 weeks
Description: as §3

[17] = test system: Setaria viridis; test: as above; details: application rate 320 g/ha, scored after about 3 weeks
Description: as §3

[18] = test system: Viola tricolor; test: as above; details: scored after about 3 weeks
Description: as §3

[19] = test system: Amaranthus retroflexus; test: as above; details: scored after about 3 weeks
Description: as §3

[20] = test system: Abutilon theophrasti; test: as above; details: scored after about 3 weeks
Description: as §3

[21] = test system: Zea mays; test: Crop compatibility pre-emergence (greenhouse pot trial); details: application rate 80 g/ha, effect vs untreated controls
Description: as §3, with “plants.” for “plants. Tables B1 to B16 below show the efficacies of selected compounds of the general formula (I) according to tables I.1 to I.60 on various harmful plants and an application rate corresponding to 320 g/ha or lower that were obtained by the aforementioned trial method.”
(§4) Crop compatibilities were also scored correspondingly.
(§5) The effects observed are reported here on selected crop plants by comparison with the untreated controls (values in %).

[22] = test system: Glycine max; test: as above; details: application rate 80 g/ha, effect vs untreated controls
Description: as §3, with “plants.” for “plants. Tables B1 to B16 below show the efficacies of selected compounds of the general formula (I) according to tables I.1 to I.60 on various harmful plants and an application rate corresponding to 320 g/ha or lower that were obtained by the aforementioned trial method.”
as §4, §5

[23] = test system: Oryza sativa; test: Crop compatibility post-emergence (greenhouse pot trial)
Outline: as §2

[24] = test system: Lolium rigidum; test: Herbicidal action post-emergence (greenhouse pot trial); details: application rate 20 g/ha, scored visually after about 3 weeks vs untreated controls
Outline: as §1

[25] = test system: Zea mays; test: Crop compatibility post-emergence (greenhouse pot trial); details: application rate 20 g/ha
Outline: as §2

[26] = test system: Veronica persica; test: Herbicidal action pre-emergence (greenhouse pot trial); details: application rate 80 g/ha
Description: as §3

Compound	Triticum aestivum (Efficacy in %) ([13]; application rate 20 g/ha) [%]	Zea mays (Efficacy in %) [21] [%]	Glycine max (Efficacy in %) [22] [%]	Oryza sativa (Efficacy in %) ([23]; application rate 20 g/ha) [%]	Triticum aestivum (Efficacy in %) ([13]; application rate 5 g/ha) [%]	Pharbitis purpurea (Efficacy in %) [1] [%]	Veronica persica (Efficacy in %) [2] [%]	Digitaria sanguinalis (Efficacy in %) [3] [%]	Alopecurus myosuroides (Efficacy in %) [4] [%]	Echinochloa crus-galli (Efficacy in %) [5] [%]	Matricaria inodora (Efficacy in %) [6] [%]	Setaria viridis (Efficacy in %) [7] [%]	Stellaria media (Efficacy in %) [8] [%]	Viola tricolor (Efficacy in %) [9] [%]	Amaranthus retroflexus (Efficacy in %) [10] [%]	Polygonum convolvulus (Efficacy in %) [11] [%]	Abutilon theophrasti (Efficacy in %) [12] [%]	other results
COC(C)COC(=O)C(C)Sc1cc(-n2c(=O)cc(C(F)(F)F)n(C)c2=O)c(F)cc1Cl (stereo not drawn) [I.1-51]	20					100	100	100	80	100	100	100	80	100	100	100	100	
COCCOCCOC(=O)C(C)Sc1cc(-n2c(=O)cc(C(F)(F)F)n(C)c2=O)c(F)cc1Cl (stereo not drawn) [I.1-23]		10	0															Pharbitis purpurea (Efficacy in %) [14]: 100%; Echinochloa crus-galli (Efficacy in %) [15]: 100%; Matricaria inodora (Efficacy in %) ([16]; application rate 320 g/ha): 100%; Setaria viridis (Efficacy in %) [17]: 100%; Viola tricolor (Efficacy in %) ([18]; application rate 320 g/ha): 100%; Amaranthus retroflexus (Efficacy in %) ([19]; application rate 320 g/ha): 100%; Abutilon theophrasti (Efficacy in %) ([20]; application rate 320 g/ha): 100%; Oryza sativa (Efficacy in %) ([23]; application rate 5 g/ha): 10%
CC(Sc1cc(-n2c(=O)cc(C(F)(F)F)n(C)c2=O)c(F)cc1Cl)C(=O)OCC1CCCCO1 (stereo not drawn) [I.1-91]		0	20	10	10	100	100				100			100	100	100	100	Veronica persica (Efficacy in %) [26]: 100%; Matricaria inodora (Efficacy in %) ([16]; application rate 80 g/ha): 100%; Viola tricolor (Efficacy in %) ([18]; application rate 80 g/ha): 100%; Amaranthus retroflexus (Efficacy in %) ([19]; application rate 80 g/ha): 100%; Abutilon theophrasti (Efficacy in %) ([20]; application rate 80 g/ha): 100%; Zea mays (Efficacy in %) [25]: 20%
CC(C)C(Sc1cc(-n2c(=O)cc(C(F)(F)F)n(C)c2=O)c(F)cc1Cl)C(=O)NCC1CCCO1 (stereo not drawn) [I.6-221, 2-({2-Chloro-4-fluoro-5-[3-methyl-2,6-dioxo-4-(trifluoromethyl)-3,6-dihydropyrimidin-1(2H)-yl]phenyl}sulfanyl)-3-methyl-N-(tetrahydrofuran-2-ylmethyl)butanamide]						100	100	100	90	80	100	100	80	100	100	100	100	Lolium rigidum (Efficacy in %) [24]: 80%

Further lines, with some results ahead:

Triticum aestivum (Efficacy in %) ([13]; application rate 20 g/ha) [%]	Zea mays (Efficacy in %) [21] [%]	Glycine max (Efficacy in %) [22] [%]	Oryza sativa (Efficacy in %) ([23]; application rate 20 g/ha) [%]	Triticum aestivum (Efficacy in %) ([13]; application rate 5 g/ha) [%]	Compound	Pharbitis purpurea (Efficacy in %) [1] [%]	Veronica persica (Efficacy in %) [2] [%]	Digitaria sanguinalis (Efficacy in %) [3] [%]	Alopecurus myosuroides (Efficacy in %) [4] [%]	Echinochloa crus-galli (Efficacy in %) [5] [%]	Matricaria inodora (Efficacy in %) [6] [%]	Setaria viridis (Efficacy in %) [7] [%]	Stellaria media (Efficacy in %) [8] [%]	Viola tricolor (Efficacy in %) [9] [%]	Amaranthus retroflexus (Efficacy in %) [10] [%]	Polygonum convolvulus (Efficacy in %) [11] [%]	Abutilon theophrasti (Efficacy in %) [12] [%]	other results
20					CCC(C)C(Sc1cc(-n2c(=O)cc(C(F)(F)F)n(C)c2=O)c(F)cc1Cl)C(=O)NCC1CCCO1 (stereo not drawn) [I.5-221]	100	100	80		80	100	100	90	100	100	100	100	Lolium rigidum (Efficacy in %) [24]: 80%
	0	20	0	10	CC(Sc1cc(-n2c(=O)cc(C(F)(F)F)n(C)c2=O)c(F)cc1Cl)C(=O)OC1CCSCC1 (stereo not drawn) [I.1-132]	100	100				100		80	100	100	100	100	Matricaria inodora (Efficacy in %) ([16]; application rate 80 g/ha): 100%; Viola tricolor (Efficacy in %) ([18]; application rate 80 g/ha): 90%; Amaranthus retroflexus (Efficacy in %) ([19]; application rate 80 g/ha): 100%; Abutilon theophrasti (Efficacy in %) ([20]; application rate 80 g/ha): 100%; Zea mays (Efficacy in %) [25]: 20%
				20	CCC(Sc1cc(-n2c(=O)cc(C(F)(F)F)n(C)c2=O)c(F)cc1Cl)C(=O)OCC1CCCOC1 (stereo not drawn) [I.2-92, Tetrahydro-2H-pyran-3-ylmethyl 2-({2-chloro-4-fluoro-5-[3-methyl-2,6-dioxo-4-(trifluoromethyl)-3,6-dihydropyrimidin-1(2H)-yl]phenyl}sulfanyl)butanoate]	100	100	100	80	100	100	100	100	100	100	100	100	
0			0		Cn1c(C(F)(F)F)cc(=O)n(-c2cc(SCC(C)(C)C(=O)OC3CCOC3)c(Cl)cc2F)c1=O (stereo not drawn) [I.48-121]	100	100	80	80		100		80	100	100	100	100	
